According to patent US20090312286A1, “DERIVATIVES OF 4-TRIMETHYLAMMONIUM-3-AMINOBUTYRATE AND 4-TRIMETHYLPHOSPHONIUM-3-AMINOBUTYRATE AS CPT-INHIBITORS” (SIGMA-TAU INDUSTRIE FARMACEUTICHE RIUNITE S.P.A., priority 2006, published 2009):
Blank lines part the entries; values can stand above or below the compound they belong to.

Tests used:
Sprague Dawley rats = experiment: Effect on food intake of intranasal administration in normal rats; assay type: in vivo; conditions: intranasal 320 μg/40 μL/rat for 3 days, starting from the day after the second treatment, FIG. 3
Description: FIG. 3 reports the food intake (expressed as g/kg b.w.) in Sprague Dawley rats, treated intranasally for 3 days with ST2425 (320 μg/40 μl/rat) equally subdivided in the two nostrils. (Mean±S.D. (n=5). One way ANOVA post-hoc test SNK *p≦0.05 vs Control)
To test the activity on food consumption of the compounds of the present invention after intranasal administration, ST2425 was given to normally-fed Sprague Dawley rats (320 μg/40 μL/rat, in citrate buffer 10 mmol/L pH 5.0, equally subdivided into the two nostrils) 2 h before the dark cycle. The compound was administered for 3 days (starting from day 0) and food consumption was measured every time for the following 24 h. Five rats were considered for each group.

[1] = molecular target: T1, CPT1 in rat mitochondria (liver) (Rattus norvegicus, UniProt P32198); experiment: In vitro inhibition of CPT I, rat liver mitochondria; assay type: biochemical; conditions: for IC50: CPT1, liver mitochondria of Fischer rats, 50 μM palmitoyl-CoA, 10 mM L-carnitine, 37° C., 1 minute; for Ratio: IC50 (heart) / IC50 (liver)
T1 construct: fresh mitochondrial preparations obtained from the liver or heart of Fischer rats; from tissue; host or cells: rat liver mitochondria (Fischer rats)
T1 sequence (P32198 1-773): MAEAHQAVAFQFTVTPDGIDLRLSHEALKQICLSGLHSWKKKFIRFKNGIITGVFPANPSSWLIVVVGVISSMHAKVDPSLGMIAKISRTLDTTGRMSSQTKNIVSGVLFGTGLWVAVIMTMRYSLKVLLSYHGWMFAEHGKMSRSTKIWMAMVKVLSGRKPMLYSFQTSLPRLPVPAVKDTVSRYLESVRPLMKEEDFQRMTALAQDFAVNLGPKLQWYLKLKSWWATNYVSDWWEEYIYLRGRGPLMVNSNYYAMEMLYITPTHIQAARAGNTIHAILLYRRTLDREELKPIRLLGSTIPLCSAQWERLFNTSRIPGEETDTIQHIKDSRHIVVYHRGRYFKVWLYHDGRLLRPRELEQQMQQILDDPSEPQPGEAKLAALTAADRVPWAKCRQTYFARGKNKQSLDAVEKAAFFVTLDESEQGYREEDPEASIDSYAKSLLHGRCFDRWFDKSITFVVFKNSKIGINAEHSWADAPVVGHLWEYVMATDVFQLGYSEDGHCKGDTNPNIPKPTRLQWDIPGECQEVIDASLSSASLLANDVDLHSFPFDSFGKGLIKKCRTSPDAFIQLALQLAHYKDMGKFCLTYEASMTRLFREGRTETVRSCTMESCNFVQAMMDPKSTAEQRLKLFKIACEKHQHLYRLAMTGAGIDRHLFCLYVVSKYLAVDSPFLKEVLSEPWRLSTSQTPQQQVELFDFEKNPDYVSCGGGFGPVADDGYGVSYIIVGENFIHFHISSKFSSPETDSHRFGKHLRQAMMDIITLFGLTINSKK
Description: 100 μl of a mitochondrial suspension, containing 50 μM of [^14C] palmitoyl-CoA (spec.act. 10000 dpm/mole) and 10 mM of L-carnitine, are incubated at 37° C. in the presence of stepped concentrations (0-3 mM) of product under examination.
(§1) The IC50 is then determined.

db/db mice = experiment: Antihyperglycemic activity in db/db mice; assay type: in vivo, mouse; conditions: vs control
Description: ST2425 and ST2452 were administered to db/db mice for 12 days at 30 mg/kg/day, using ST1326 at a higher dose (80 mg/kg/day) as reference compound. At the end of the treatment, serum glucose levels were evaluated after 16 hours fasting and 2 hours from last administration.

[2] = molecular target: T2, CPT1 in rat mitochondria (heart) (Rattus norvegicus, UniProt Q63704); experiment: In vitro inhibition of CPT I, rat heart mitochondria; assay type: biochemical; conditions: CPT1, heart mitochondria of Fischer rats, 50 μM palmitoyl-CoA, 10 mM L-carnitine, 37° C., 1 minute
T2 construct: fresh mitochondrial preparations obtained from the liver or heart of Fischer rats; from tissue; host or cells: rat heart mitochondria (Fischer rats)
T2 sequence (Q63704 1-772): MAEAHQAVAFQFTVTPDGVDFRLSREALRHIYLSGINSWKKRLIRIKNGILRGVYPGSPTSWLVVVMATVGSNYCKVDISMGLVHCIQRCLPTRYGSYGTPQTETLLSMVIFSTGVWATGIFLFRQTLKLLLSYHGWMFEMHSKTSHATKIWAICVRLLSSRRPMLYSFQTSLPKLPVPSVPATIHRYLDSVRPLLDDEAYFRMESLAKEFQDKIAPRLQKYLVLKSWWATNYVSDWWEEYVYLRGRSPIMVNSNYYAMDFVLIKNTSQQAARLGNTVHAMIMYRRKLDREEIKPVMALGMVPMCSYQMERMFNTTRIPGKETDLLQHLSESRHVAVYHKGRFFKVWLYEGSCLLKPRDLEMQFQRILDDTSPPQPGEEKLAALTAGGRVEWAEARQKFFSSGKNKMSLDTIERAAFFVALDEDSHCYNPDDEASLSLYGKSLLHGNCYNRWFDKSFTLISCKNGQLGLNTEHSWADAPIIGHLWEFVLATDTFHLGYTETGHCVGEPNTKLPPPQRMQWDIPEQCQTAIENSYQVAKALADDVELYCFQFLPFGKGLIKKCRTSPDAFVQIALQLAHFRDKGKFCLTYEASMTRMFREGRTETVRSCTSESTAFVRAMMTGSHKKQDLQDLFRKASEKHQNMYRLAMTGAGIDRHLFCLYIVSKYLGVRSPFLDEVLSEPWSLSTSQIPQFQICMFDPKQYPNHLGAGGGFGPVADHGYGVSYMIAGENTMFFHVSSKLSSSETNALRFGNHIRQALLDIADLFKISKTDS
Description: The inhibition of CPT was evaluated on fresh mitochondrial preparations obtained from the liver or heart of Fischer rats, fed normally; the mitochondria taken from the liver or heart are suspended in a 75 mM sucrose buffer, EGTA 1 mM, pH 7.5. 100 μl of a mitochondrial suspension, containing 50 μM of [^14C] palmitoyl-CoA (spec.act. 10000 dpm/mole) and 10 mM of L-carnitine, are incubated at 37° C. in the presence of stepped concentrations (0-3 mM) of product under examination.
as §1

[3] = test system: β-hydroxybutyrate production; experiment: Inhibition of ketone bodies production in vivo in fasted rats; design: species or system rat; conditions: for ED50: Rattus norvegicus, single oral treatment, calculated on AUC of β-hydroxybutyrate from time 0 to 9 hours; for reduction of β-hydroxybutyrate levels / time to reach minimum β-hydroxybutyrate values: rats fasted 17 hours; for reduction of β-hydroxybutyrate levels: single oral dose equimolar to 10 mg/Kg of ST1326, measured at 3 and 6 hours; for time to reach minimum β-hydroxybutyrate values: single oral dose equimolar to 10 mg/Kg of ST1326, values stable for additional 3 hours
Description: The compounds were administered per os at 9:00 after 17 hours of fasting (n=5) at doses equimolar to 10 mg/kg of ST1326, which is used as reference compound.
The inhibition of CPT and consequently of β-hydroxybutyrate production operated by ST2425 and ST2452 was evaluated in vivo in rats fasted from 17 hours, at doses equimolar to 10 mg/Kg of ST1326 used as reference compound. β-hydroxybutyrate levels were measured at 3 and 6 hours from single oral treatment.
For compound ST2425, inhibition of ketone bodies production was also evaluated at the dosages of 0, 1, 3, 7, 10 mg/kg in rats fasted for 16 hours, following the reduction of β-hydroxybutyrate for 9 hours after single oral treatment.

C57BL/6J mice = experiment: Effect on food intake and body weight of repeated intracerebroventricular administration; assay type: in vivo, mouse; conditions: for Mice weight / 24 hours food intake: C57BL6/J mice, Mean ± S.D.
Description: Two groups of 8 C57BL/6J mice each (ST2425 and Control) were injected icv (3 μL) with 250 pmoles (0.113 μg) of ST2425 dissolved in RPMI 1640 (vehicle), for 4 days (starting from day 0). The animals were slightly confused by isofluorane anestesia. The head was positioned in an apparatus used to reveal a “virtual bregma” without opening the skin. The injection was performed with a syringe at 3.5 mm of depth, using the following coordinates from Bregma: 1 mm on the left of the midsagittal suture and 3 mm posterior (lateral ventricle). The animals were treated at 5:00 p.m. and food intake was monitored at 8:00 a.m. of the day after. Starting from the day after the first treatment, food was removed from 8:00 a.m. to 5:00 p.m.
Statistical analysis was performed using two way repeated measures ANOVA followed by Student, Newman, Keuls test as post-hoc analysis.

[4] = day 1, icv 250 pmoles for 4 days
[5] = day 2, icv 250 pmoles for 4 days
[6] = day 3, icv 250 pmoles for 4 days
[7] = day 4, icv 250 pmoles for 4 days
[8] = days 3 and 4, statistically significant
[9] = over the experiment, icv 250 pmoles for 4 days

IC50 [1]: 0.27 µM
Ratio [1]: 117
IC50 [2]: 31.6 µM
Structure (SMILES): CCCCCCOc1cccc(OCCCCNC(=O)N[C@H](CC(=O)[O-])C[N+](C)(C)C)c1 [ST2425, (R)-4-trimethylammonium-3-[[4-[(3-hexyloxy)-phenoxy]butyl]carbamoyl]-amino-butyrate]
food consumption with respect to controls (Sprague Dawley rats): significant reduction of food consumption
reduction of glucose levels (db/db mice; 30 mg/kg/day for 12 days): 41%
ED50 ([3]; rats fasted 16 hours): 3.7 mg/kg
effect on ketone bodies levels, dose relation ([3]; fasted rats, FIG. 2): dose-related effect
onset of action on ketone bodies levels ([3]; rats fasted 16 hours, single oral treatment 1-10 mg/kg, FIG. 2): faster onset of action
reduction of β-hydroxybutyrate levels [3]: higher and faster with respect to ST1326
time to reach minimum β-hydroxybutyrate values [3]: 3 h
Mice weight (C57BL/6J mice; day 0, icv 250 pmoles for 4 days): 22.2 ± 0.91 g
24 hours food intake (C57BL/6J mice; [4]): 3.15 ± 0.61 g
Mice weight (C57BL/6J mice; [4]): 21.2 ± 0.96 g
24 hours food intake (C57BL/6J mice; [5]): 3.31 ± 0.70 g
Mice weight (C57BL/6J mice; [5]): 20.5 ± 1.14 g
change of mice weight (C57BL/6J mice; day 2, statistically significant): −5%
24 hours food intake (C57BL/6J mice; [6]): 3.35 ± 0.73 g
Mice weight (C57BL/6J mice; [6]): 20.0 ± 0.69 g
24 hours food intake (C57BL/6J mice; [7]): 3.55 ± 0.63 g
Mice weight (C57BL/6J mice; [7]): 20.1 ± 0.64 g
change of mice weight (C57BL/6J mice; [8]): −10%
reduction of food intake (C57BL/6J mice; [8]): about 30%
change of food consumption with respect to the control group (C57BL/6J mice; [9]): −25%
change of mice weight with respect to the control group (C57BL/6J mice; [9]): −7%

Ratio [1]: 135
Structure (SMILES): CCCCCCCCCCCCCCNC(=O)N[C@H](CC(=O)[O-])C[N+](C)(C)C [ST1326, R-4-trimethyl ammonium-3-(tetradecylcarbamoyl)-aminobutyrate, reference compound]
reduction of glucose levels (db/db mice; 80 mg/kg/day for 12 days): 26%
ED50 ([3]; rats fasted 16 hours): 14.5 mg/kg

IC50 [1]: 0.12 µM
Ratio [1]: 478
IC50 [2]: 57.3 µM
Structure (SMILES): CCCCCCOc1cccc(OCCCCNC(=O)N[C@H](CC(=O)[O-])C[P+](C)(C)C)c1 [ST2452, (R)-4-trimethylphosphonium-3-[[4-[(3-hexyloxy)phenoxy]butyl]carbamoyl]-amino-butyrate]
reduction of glucose levels (db/db mice; 30 mg/kg/day for 12 days): 30%
reduction of β-hydroxybutyrate levels [3]: higher and faster with respect to ST1326
time to reach minimum β-hydroxybutyrate values [3]: 3 h
